Reference: article PMC11881906, “Development of xanthone derivatives as effective broad-spectrum antimicrobials: Disrupting cell wall and inhibiting DNA synthesis” (Science Advances, 2025)
Values after ≈ are worked out from the molar mass of the structure shown. Like-named read-outs stand apart in the source and are kept apart here.

Key:
[1] = system: tested strains (Gram-positive and Gram-negative bacteria); assay: MIC, summary over the tested strains; type: cell-based
Experimental: MIC was determined using the broth microdilution method in accordance with Clinical and Laboratory Standards Institute guidelines. All compounds were dissolved in dimethyl sulfoxide (DMSO; final DMSO concentration of less than 0.5%) and sterile double-distilled water and then diluted with Mueller-Hinton broth (MHB). Each compound’s stock solution was serially twofold diluted, resulting in concentrations ranging from 0.39 to 100 μg/ml, and thereafter added to sterile 96-well plates. All bacterial cell suspensions were adjusted in MHB to attain a starting inoculum of 1 × 10^6 cells/ml. A total of 100 μl volume of the bacterial suspension was then added to each well. Following a 24-hour incubation at 37°C, the optical density at 600 nm (OD600) was confirmed by measuring absorbance at 600 nm with a BioTek microplate reader. […] All measurements were repeated three times with duplicates each time.

S. aureus ATCC 29213 [2] = assay: Time-kill kinetic assay; type: cell-based, Staphylococcus aureus; conditions: 10× MIC, 24 hours
Experimental: The bacterial cultures were standardized to obtain an initial density that ranged from 10^5 to 10^6 cells/ml. The cultures were incubated in a shaking bath at 37°C. Viable counts were determined at 0-, 0.5-, 1.0-, 2.0-, 4.0-, 8.0-, and 24-hour intervals by spotting 10-μl aliquots of serially 10-fold diluted cultures onto Mueller-Hinton agar (MHA) plates. […] All measurements were repeated three times with duplicates each time.

S. aureus ATCC 29213 [3] = assay: SYTOX Green uptake assay; type: cell-based, Staphylococcus aureus; conditions: up to 8× MIC
Experimental: The SYTOX Green uptake was measured to explore the inner membrane permeability. The overnight bacteria culture was centrifuged and resuspended in sterile PBS to obtain an OD600 of 0.2. SYTOX Green dye was added to a final concentration of 0.3 μM and incubated for 20 min without being exposed to the light. Fluorescence was measured at excitation and emission wavelengths of 504 and 523 nm, respectively. […] The changes in fluorescence intensity were continuously monitored for 1 hour. All measurements were repeated three times with duplicates each time.

[4] = Plasma pharmacokinetic study; type: in vivo, CD-1 mice; conditions: for Mean plasma concentration: LLOQ=10 ng/mL; for bioavailability: dose-normalised AUCINF, read-out: bioavailability (F)
Experimental: Mouse plasma PK studies were performed at Shanghai Ruizhi Chemical Research Co. Ltd. All experiments related to animals were conducted in compliance with the ethical guidelines approved by the Institutional Animal Care and Use Committee (IACUC) of the Shanghai Ruizhi Chemical Research Co. Ltd. Male CD-1 mice (6 to 8 weeks) were treated with the corresponding dose of drugs formulated in 5% glucose solution (D5W) delivered via intravenous injection via tail vein, intraperitoneal injection, or subcutaneous injection. Following administration, approximately 110 μl of blood was taken via facial vein […] at 0.083, 0.25, 0.5, 1, 2, 4, 8, and 24 hours into K2EDTA tubes. Blood samples were placed on ice and centrifuged to obtain plasma samples (2000g, 5 min under 4°C). Plasma samples were stored at approximately −70°C until analysis. The XT17 concentration in plasma PK studies was measured by liquid chromatography–tandem mass spectrometry (LC-MS/MS) assay using an LC-MS/MS-22 (Triple Quad 6500) instrument. Plasma concentrations versus time data and PK parameters were estimated from noncompartmental analysis using WinNonlin 8.2.

P. aeruginosa ATCC 9027 = assay: Murine corneal infection model; type: in vivo, mice; conditions: topical, 2 days; XT17 5 mg/ml, gatifloxacin 3 mg/ml; vs 5% glucose control
Source text: Female C57BL/6 mice (average weight, 20 g) were used for the in vivo efficacy experiments. Mice were housed in a specific pathogen–free facility on a 12-hour light-dark cycle, under the condition with ad libitum access to irradiation sterilized rodent diet and aseptic water. […]. These in vivo experiments were approved by the Experimental Animal Center of South China Agricultural University and conducted in accordance with the policies of the Ministry of Health of China.
The in vivo efficacy of compound XT17 was investigated in a murine corneal infection model. Before infection, the mice were immunosuppressed with three intraperitoneal injections of cyclophosphamide (100 mg/kg) over 5 days. After anesthesia with 2.5% avertin (500 mg/kg, ip), the left corneas of mice were scratched with 15 μl of S. aureus ATCC 29213 or P. aeruginosa ATCC 9027 (approximately 5 × 10^7 CFU/ml). Following 1 day of infection, the infected mice were randomly assigned into […] (n = 5) and subsequently administered with 0.5% compound XT17, 5% glucose solution, 5% vancomycin, or 0.3% gatifloxacin topically. S. aureus–caused murine corneal infections were treated four times a day for three consecutive days. Only 2 days of treatment were given for P. aeruginosa–caused murine corneal infections. On the first day, the drug was administered every 20 min for 1 hour and then three times at 2-hour intervals on the second day. The mice were given a 5% glucose solution as a negative control in the absence of any antimicrobial agent treatment. The infected corneas were collected after the mice were euthanized, and the number of viable bacteria was counted using MHA plates.

[5] = male, CD-1, mouse, plasma, ip, 20 mg/kg, ip 20 mg/kg
[6] = male, CD-1, mouse, plasma, iv, 5 mg/kg, IV 5 mg/kg
[7] = male, CD-1, mouse, plasma, sc, 40 mg/kg, sc 40 mg/kg
[8] = male, CD-1, mouse, plasma, IP 20 mg/kg
[9] = male, CD-1, mouse, plasma, IV 5 mg/kg
[10] = male, CD-1, mouse, plasma, SC 40 mg/kg

For CC(C)=CCOc1cc(OCCCNC(=N)N)cc2oc3cc(OCCCNC(=N)N)ccc3c(=O)c12 [XT17], the “fold increase in antibacterial activity” value ([1]; guanidine XT17 versus primary amine XT07) was 8- to 32 fold, the MIC ([1]; read-out: MICs against the tested strains) was 0.39 to 3.12 µg/mL (≈ 0.764 to 6.12 µM) and the “log decrease in bacterial load” value (S. aureus ATCC 29213 [2]) was 5.16 log. The “SYTOX Green fluorescence intensity (cytoplasmic membrane permeabilization)” value (S. aureus ATCC 29213 [3]) was “did not show a notable increase”, the MRTIast ([4]; IP 20 mg/kg) was 1.08 h and the Mean plasma concentration ([4]; IP 20 mg/kg, 24 hr) was “BQL”. For the same compound, the Mean plasma concentration ([4]; IV 5 mg/kg, 8 hr) was “BQL”, the Mean plasma concentration ([4]; IV 5 mg/kg, 24 hr) was “BQL” and the MRTIast ([4]; SC 40 mg/kg) was 5.54 h. The “time blood concentrations maintained above MICs” value ([4]; iv single dose 5 mg/kg) was “more than 4 hours”, the bioavailability ([4]; male, CD-1, mouse, plasma, intraperitoneal, ip 20 mg/kg vs iv 5 mg/kg) was 69.7% and the Cmax ([4]; male, CD-1, mouse, plasma, ip, 20 mg/kg, IP 20 mg/kg) was 18400 ng/mL. For the same compound, the Cmax [4, 5] was 18400 ng/mL, the half-life [4, 5] was 1.02 h and the clearance [4, 6] was 9.68 mL/min/kg. The half-life [4, 6] was 0.478 h, the half-life ([4]; male, CD-1, mouse, plasma, iv, 5 mg/kg, iv 5 mg/kg) was 0.48 h and the Cmax ([4]; male, CD-1, mouse, plasma, iv, 5 mg/kg, iv 5 mg/kg, for bolus iv Cmax = C0) was 20300 ng/mL. For the same compound, the Cmax ([4]; male, CD-1, mouse, plasma, sc, 40 mg/kg, SC 40 mg/kg) was 8680 ng/mL, the Cmax [4, 7] was 8680 ng/mL and the half-life [4, 7] was 4.68 h. For the same compound, the bioavailability ([4]; male, CD-1, mouse, plasma, subcutaneous, sc 40 mg/kg vs iv 5 mg/kg) was 87.3%, the AUC(0-inf) [4, 8] was 24000 ng·h/mL and the AUC(0-t) [4, 8] was 23900 ng·h/mL. For the same compound, the MRT inf [4, 8] was 1.13 h, the Tmax [4, 8] was 0.25 h and the concentration at 0.083 h [4, 8] was 17500 ng/mL. It also gave a concentration at 0.25 h [4, 8] of 18400 ng/mL, a concentration at 0.5 h [4, 8] of 14100 ng/mL and a concentration at 1 h [4, 8] of 9190 ng/mL. For the same compound, the concentration at 2 h [4, 8] was 2770 ng/mL, the concentration at 4 h [4, 8] was 452 ng/mL and the concentration at 8 h ([4]; male, CD-1, mouse, plasma, IP 20 mg/kg, 8 hr) was 90.1 ng/mL. The AUC(0-inf) [4, 9] was 8610 ng·h/mL, the AUC(0-t) [4, 9] was 8590 ng·h/mL and the MRT inf [4, 9] was 0.42 h. It also gave an MRT last [4, 9] of 0.412 h, a concentration at 0.083 h [4, 9] of 20300 ng/mL and a concentration at 0.25 h [4, 9] of 7360 ng/mL. It also gave a concentration at 0.5 h [4, 9] of 3630 ng/mL, a concentration at 1 h [4, 9] of 1770 ng/mL and a concentration at 2 h [4, 9] of 282 ng/mL. The concentration at 4 h [4, 9] was 23.3 ng/mL, the Vd ([4]; male, CD-1, mouse, plasma, IV 5 mg/kg, read-out: Vss) was 0.244 L/kg and the AUC(0-inf) [4, 10] was 60100 ng·h/mL. For the same compound, the AUC(0-t) [4, 10] was 58800 ng·h/mL, the MRT inf [4, 10] was 6.07 h and the Tmax [4, 10] was 1 h. It also gave a concentration at 0.083 h [4, 10] of 7730 ng/mL, a concentration at 0.25 h [4, 10] of 6690 ng/mL and a concentration at 0.5 h [4, 10] of 7340 ng/mL. For the same compound, the concentration at 1 h [4, 10] was 8680 ng/mL, the concentration at 2 h [4, 10] was 4620 ng/mL and the concentration at 4 h [4, 10] was 3560 ng/mL. For the same compound, the concentration at 8 h ([4]; male, CD-1, mouse, plasma, SC 40 mg/kg, 8 hr) was 2810 ng/mL, the concentration at 24 h ([4]; male, CD-1, mouse, plasma, SC 40 mg/kg, 24 hr) was 188 ng/mL and the “time blood concentrations maintained above MICs” value ([4]; sc single dose 40 mg/kg) was “more than 8 hours”. The “log reduction in viable bacterial colonies in the infected corneas” value (P. aeruginosa ATCC 9027) was 2.88 log.
